Measurements from patent publication US6608082B1, “Treatment of erectile dysfunction using isoquinoline compound melanocortin receptor ligands” (Lion Bioscience AG, priority 1998, dated 2003).

Experiments:
IL-10 = assay: Increasing levels of IL-10 in mice (plasma ELISA); type: in vivo; settings: IP, mouse plasma, 90 or 105 minutes; for % IL-10 Induction, IP 30: 30 μg per mouse; for % IL-10 Induction, IP 300: 300 μg per mouse
Protocol: Isoquinoline compounds were administered intraperitoneally to mice in doses of 30, 100 or 300 μg/mouse or orally in doses of 300 or 600 μg/mouse. Levels of IL-10 were measured 90 or 105 minutes after administration as indicated. Samples were collected and diluted, when appropriate, as described in Example VI. A 100 μl sample of plasma was assayed by ELISA for IL-10. Briefly, ELISA plates were coated with rat anti-mouse IL-10 monoclonal antibody (Pharmingen; San Diego Calif.). Samples or known concentrations of IL-10 were added to the coated plates and incubated for 2 hr at 37° C. Plates were washed and incubated with biotinylated rat anti-mouse IL-10 (R&D Systems; Minneapolis Minn.) for 1 hr at 37° C. Plates were washed and incubated with streptavidin-HRP 30 min at 37° C., and HRP activity was detected with hydrogen peroxide and TMB using standard immunoassay procedures.

MCR-1 = target: T1, MCR-1 (Homo sapiens, UniProt Q01726); assay: Melanocortin receptor binding assay, competition with 125I-HP 467, HEK 293 cells expressing hMCR-1; settings: 10 μM isoquinoline compound
T1 construct: expressed in transfected cells; host or cells: HEK 293
T1 sequence (Q01726 whole entry): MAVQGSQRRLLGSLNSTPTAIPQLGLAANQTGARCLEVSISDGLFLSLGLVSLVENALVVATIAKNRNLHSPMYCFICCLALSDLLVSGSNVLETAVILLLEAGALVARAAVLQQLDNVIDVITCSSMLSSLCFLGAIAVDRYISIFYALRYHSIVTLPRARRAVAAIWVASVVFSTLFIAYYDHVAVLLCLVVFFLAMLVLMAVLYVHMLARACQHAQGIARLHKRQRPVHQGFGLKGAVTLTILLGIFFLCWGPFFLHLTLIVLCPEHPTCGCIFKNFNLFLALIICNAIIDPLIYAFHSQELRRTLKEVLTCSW
In short: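 Test compounds compete on intact HEK 293 cells carrying hMCR-1 (2×10^4 per tube) or hMCR-4 (4×10^3 per tube), suspended in PBS, 10% calf serum, 1 mM CaCl2.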

TNF-α = assay: Reduction of lipopolysaccharide-induced tumor necrosis factor levels in mice; type: in vivo, BALB/c female mice; settings: IP, plasma 90 or 105 minutes after LPS, mean ± SEM; for % TNF-α Inhibtion, IP 30: 30 μg per mouse; for % TNF-α Inhibtion, IP 300: 300 μg per mouse
Protocol: BALB/c female mice weighing approximately 20 g were placed into a control group and a treated group. Five mg/kg of LPS in 0.9% saline was administered (100 μl to give 100 μg LPS per mouse) by intraperitoneal (IP) injection to all mice. Mice in the treatment group received either 30, 100, 300 or 600 μg of various isoquinoline compounds per mouse in a volume of 100 μl of PBS. Control mice received 100 μl of saline alone. One minute after initial injections all mice received the LPS injection. As a positive control, 100 μg of HP 228 was injected per mouse.
Blood samples were collected from the orbital sinus of treated and control mice 90 minutes or 105 minutes after LPS administration. The plasma was separated by centrifugation at 3000×g for 5 min and stored at −20° C. Samples were thawed and diluted, if TNF-α concentration was greater than 3200 pg/ml, with PBS containing 1% bovine serum albumin, 10% donor horse serum, 1% normal mouse serum, 0.05% TWEEN-20 and 0.05% thimerosal. A 100 μl sample of plasma was assayed by ELISA for TNF-α. Briefly, ELISA plates were coated with hamster anti-mouse TNF-α antibody (Genzyme; Cambridge Mass.). Samples or known concentrations of TNF-α were added to the coated plates and incubated for 2 hr at 37° C. Plates were washed and subsequently incubated with biotinylated rabbit anti-mouse TNG-α for 1 hr at 37° C. Plates were washed and incubated with streptavidin-HRP for 1 hr at 37° C., and HRP activity was detected with hydrogen peroxide and o-phenylenediamine (OPD) using standard immunoassay procedures.
The mean (±SEM) TNF-α level in five mice from each group was determined and the percent reduction in TNF-α levels was calculated.

MCR-5 = target: T2, MCR-5 (Homo sapiens, UniProt P33032); assay: Melanocortin receptor binding assay, competition with 125I-HP 467, HEK 293 cells expressing hMCR-5; settings: binding to MCR-5, HEK 293 cells; read-out: MC-5 IC50
T2 construct: expressed in transfected cells; host or cells: HEK 293
T2 sequence (P33032 whole entry): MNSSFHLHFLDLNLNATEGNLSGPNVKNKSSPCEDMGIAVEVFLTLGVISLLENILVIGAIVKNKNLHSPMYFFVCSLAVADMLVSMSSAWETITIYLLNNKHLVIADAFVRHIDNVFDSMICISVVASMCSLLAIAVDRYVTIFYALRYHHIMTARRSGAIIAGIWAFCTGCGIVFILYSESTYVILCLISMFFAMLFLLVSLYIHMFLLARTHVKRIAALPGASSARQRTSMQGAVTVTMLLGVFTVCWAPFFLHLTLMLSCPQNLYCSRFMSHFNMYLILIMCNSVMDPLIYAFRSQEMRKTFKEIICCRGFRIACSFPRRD
Description: (§1) All cell culture media and reagents were obtained from GibcoBRL (Gaithersburg Md.), except for COSMIC CALF SERUM (HyClone; Logan Utah). HEK-293 cell lines were transfected with the human MC receptors hMCR-1, hMCR-3, and hMCR-4 (Gantz et al., Biochem. Biophys. Res. Comm. 200:1214-1220 (1994); Gantz et al., J. Biol. Chem. 268:8246-8250 (1993); Gantz et al. J. Biol. Chem. 268:15174-15179 (1993); Haskell-Leuvano et al., Biochem. Biophys. Res. Comm. 204:1137-1142 (1994); each of which is incorporated herein by reference). Vectors for construction of an hMCR-5 expressing cell line were obtained, and a line of HEK 293 cells expressing hMCR-5 was constructed (Gantz, supra, 1994). hMCR-5 has been described previously (Franberg et al., Biochem. Biophys. Res. Commun. 236:489-492 (1997); Chowdhary et al., Cytogenet. Cell Genet. 68:1-2 (1995); Chowdhary et al., Cytogenet. Cell Genet. 68:79-81 (1995), each of which is incorporated herein by reference). HEK 293 cells were maintained in DMEM, 25 mM HEPES, 2 mM glutamine, non-essential amino acids, vitamins, sodium pyruvate, 10% COSMIC CALF SERUM, 100 units/ml penicillin, 100 μg/ml streptomycin and 0.2 mg/ml G418 to maintain selection.
(§2) Before assaying, cells were washed once with phosphate buffered saline (“PBS”; without Ca^2+ and Mg^2+), and stripped from the flasks using 0.25% trypsin and 0.5 mM EDTA. Cells were suspended in PBS, 10% COSMIC CALF SERUM and 1 mM CaCl2. Cell suspensions were prepared at a density of 2×10^4 cells/ml for HEK 293 cells expressing hMCR-3, hMCR-4 or hMCR-5, and 1×10^5 cells/ml for HEK 293 cells expressing hMCR-1. Suspensions were placed in a water bath and allowed to warm to 37° C. for 1 hr.
(§3) Binding assays were performed in a total volume of 250 μl for HEK 293 cells. Control and test compounds were dissolved in distilled water. ^125I-HP 467 (50,000 dpm) (2000 Ci/mmol) (custom labeled by Amersham; Arlington Heights Ill.) was prepared in 50 mM Tris, pH 7.4, 2 mg/ml BSA, 10 mM CaCl2, 5 mM MgCl2, 2 mM EDTA and added to each tube. To each tube was added 4×10^3 HEK 293 cells expressing hMCR-3, hMCR-4 or hMCR-5, or 2×10^4 cells expressing hMCR-1. Assays were incubated for 2.5 hr at 37° C.
(§4) GF/B filter plates were prepared by soaking for at least one hour in 5 mg/ml BSA and 10 mM CaCl2. Assays were filtered using a Brandel 96-well cell harvester (Brandel Inc.; Gaithersburg, Md.). The filters were washed four times with cold 50 mM Tris, pH 7.4, the filter plates were dehydrated for 2 hr and 35 μl of MICROSCINT was added to each well. Filter plates were counted using a Packard Topcount (Packard Instrument Co.) and data analyzed using GraphPad PRISM v2.0 (GraphPad Software Inc.; San Diego Calif.) and Microsoft EXCEL v5.0a (Microsoft Corp.; Redmond Wash.).
(§5) To assay isoquinoline compounds, binding assays were performed in duplicate in a 96 well format. HP 467 was prepared in 50 mM Tris, pH 7.4, and ^125I-HP 467 was diluted to give 100,000 dpm per 50 μl. An isoquinoline compound, synthesized as described in Example I, was added to the well in 25 μl aliquots. A 25 μl aliquot of ^125I-HP 467 was added to each well. A 0.2 ml aliquot of suspended cells was added to each well to give the cell numbers indicate above, and the cells were incubated at 37° C. for 2.5 hr. Cells were harvested on GF/B filter plates as described above and counted.
(§6) Some of the isoquinoline compounds were further tested for binding to MCR-3 and MCR-5.

MCR-3 = target: T3, MCR-3 (Homo sapiens, UniProt P41968); assay: Melanocortin receptor binding assay, competition with 125I-HP 467, HEK 293 cells expressing hMCR-3; settings: binding to MCR-3, HEK 293 cells; read-out: MC-3 IC50
T3 construct: expressed in transfected cells; host or cells: HEK 293
T3 sequence (P41968 whole entry): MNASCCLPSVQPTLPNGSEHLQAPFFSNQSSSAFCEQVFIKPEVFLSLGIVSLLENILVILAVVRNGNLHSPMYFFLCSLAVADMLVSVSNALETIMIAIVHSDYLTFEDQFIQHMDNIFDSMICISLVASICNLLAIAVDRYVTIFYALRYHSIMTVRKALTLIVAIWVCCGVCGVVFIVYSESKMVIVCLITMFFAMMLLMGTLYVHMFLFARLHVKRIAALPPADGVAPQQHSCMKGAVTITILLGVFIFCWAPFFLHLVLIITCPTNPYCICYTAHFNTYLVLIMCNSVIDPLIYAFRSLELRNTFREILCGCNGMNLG
Description: as §1, §2, §3, §4, §5, §6

[1] = test system: arachidonic acid induced dermal inflammation; assay: Arachidonic acid induced dermal inflammation (ear thickness); type: in vivo, Female BALB/c mice
Protocol: Female BALB/c mice (17-22 g) were used and administered the test isoquinoline compounds or positive control compounds 30 to 60 min prior to topical application of arachidonic acid. Indomethacin and HP 228 were used as positive controls. Compounds were administered orally (p.o.) or intraperitoneally (i.p.). Initial ear thickness (left and right) was measured using spring loaded micro-calipers. Arachidonic acid was applied to mice anesthetized with a cocktail of ketamine/xylazine (7.0 mg/ml and 0.6 mg/ml, respectively) administered i.p. (300 μl/mouse). Utilizing a micro-pipette, 20 μl of arachidonic acid solution (100 mg/ml ethanol or acetone) was applied to the right ear (10 μl to inner and 10 μl to outer surfaces of […] for a total of 2 mg arachidonic acid per right ear), and 20 μl of vehicle (ethanol or acetone) was applied to the left ear. Mice were returned to their cages to recover. Mice were again anesthetized 50 min after arachidonic acid application and their ears measured.
Dermal inflammation was determined by subtracting the difference of the vehicle treated left ear (L60−L0) from the difference of the arachidonic acid treated right ear (R60−R0). Ear thickness measurements were averaged for each group, and the responses in the vehicle treated control group (Cr; saline or PBS) were subtracted from the response noted in the isoquinoline compound treated group (Tr) to give the relative inflammatory response for each treatment group compared to the control group. The percent inhibition is defined by the equation: % inhibition=(Cr−Tr)/(Cr)×100.

[2] = Body weight and food consumption after i.p. administration; type: in vivo, Sprague-Dawley rats; settings: rats, 5 mg/kg i.p., 18 hours after injection; FIG. 6
Description: Adult male Sprague-Dawley rats (175-225 g) were used to assess the effect of isoquinoline compounds on food uptake and body weight. Baseline body weight and food consumption measurements were taken for 3 days prior to start of the study (Day 0). On Day −1, the food was taken away from the animals at 5:00 PM. The next morning (Day 0), body weight measurements were taken, and the animals were divided into treatment groups with 6 animals in each group. The treatment groups were saline control, HP 228 positive control and test isoquinoline compounds. Saline was administered i.p. at 1 ml/kg. HP 228 and test isoquinoline compounds were administered i.p. at 5 mg/kg. The injections were initiated at 2:00 PM on Day 0.
Body weight and food consumption measurements were taken at 9 hr (Day 0; 11:00 PM) and at 18 hr (Day 1, 8:00 AM) after injection. At the end of the study, all evaluated parameters (9 and 18 hour body weight and food consumption) were analyzed by standard statistical methods. Significance (P<0.05) was determined by one-way ANOVA, ANOVA for repeated measures, or Student's t-test.
The level of reduction was similar to that seen with HP 228.

Compound: CNC(CN)CCCCN1Cc2ccccc2C(CNC2CCCCC2)C1c1ccc(OC)c(S(=O)(=O)O)c1 (stereo not drawn) [TRG 2405-268]
- % IL-10 Induction, IP 30 (IL-10): −3 ± 16%
- % IL-10 Induction, IP 300 (IL-10): 6 ± 17%
- % Disp. of 125I-HP 467 (first of duplicate) (MCR-1; HEK 293 cells expressing MCR-1, duplicate 1): 0%
- % Disp. of 125I-HP 467 (second of duplicate) (MCR-1; HEK 293 cells expressing MCR-1, duplicate 2): 3.6%
- % TNF-α Inhibtion, IP 30 (TNF-α): −58 ± 18%
- % TNF-α Inhibtion, IP 300 (TNF-α): 9 ± 23%

Compound: CCNc1ccc(C2C(CNC3CCCC3)c3ccccc3CN2CCCCC(CN)NC)cc1 (stereo not drawn) [TRG 2407-67]
- % IL-10 Induction, IP 30 (IL-10): −3 ± 15%
- % IL-10 Induction, IP 300 (IL-10): 29 ± 8%
- IC50 (MCR-5): 4.16 µM
- % TNF-α Inhibtion, IP 30 (TNF-α): 8 ± 14%
- % TNF-α Inhibtion, IP 300 (TNF-α): 73 ± 3 %
- IC50 (MCR-3): 20.9 µM

Compound: COc1ccc2c(c1)c(CC(=O)O)c(C)n2C(=O)c1ccc(Cl)cc1 [indomethacin, reference compound]
- inhibition of arachidonic acid induced dermal inflammation ([1]; administered orally, TRG 2405-241 600 μg/mouse, indomethacin 1 mg/mouse, FIG. 2): inhibition of arachidonic acid induced dermal inflammation

Compound: Ac-Nle-Gln-His-(D)Phe-Arg-(D)Trp-Gly-NH2 [HP 228, reference compound]
- inhibition of arachidonic acid induced dermal inflammation ([1]; 100 μg/mouse administered intraperitoneally, FIG. 4): inhibition of arachidonic acid induced dermal inflammation
- inhibition of arachidonic acid induced dermal inflammation ([1]; administered intraperitoneally, TRG 2405-241 300 μg/mouse, HP 228 100 μg/mouse, FIG. 3): inhibition of arachidonic acid induced dermal inflammation
- reduction in the level of arachidonic acid-induced dermal inflammation ([1]; intraperitoneally, HP 228 100 μg/mouse, TRG 2409-2 or TRG 2409-14 100 or 300 μg/mouse, FIG. 5): reduction
- food consumption [2]: reduction
- weight gain [2]: reduction
